Results reported in ChEMBL document CHEMBL5244229, “Thiazole-containing compounds as therapeutic targets for cancer therapy” (Eur J Med Chem, 2020).
Converted amounts (≈) assume the structure as drawn. Blank lines part the entries; values can stand above or below the compound they belong to.

Experiments:
HCT-116 = assay: Anticancer activity against human HCT-116 cells; assay type: functional, cell-based
MV4-11 = assay: Anticancer activity against human MV4-11 cells; assay type: functional, cell-based
MCF7 [1] = assay: Cytotoxicity against human MCF7 cells; assay type: functional, cell-based
HeLa = assay: Cytotoxicity against human HeLa cells; assay type: functional, cell-based
MCF7 [2] = assay: Anticancer activity against human MCF7 cells; assay type: functional, cell-based
[3] = molecular target: Epidermal growth factor receptor (Homo sapiens, UniProt P00533); assay: Inhibition of EGFR (unknown origin)
HepG2 [4] = assay: Cytotoxicity against human HepG2 cells; assay type: functional, cell-based
[5] = Cytotoxicity against human SNU-216 cells; assay type: functional, cell-based
SNU-638 = assay: Cytotoxicity against human SNU-638 cells; assay type: functional, cell-based
Hep 3B2 = assay: Cytotoxicity against human Hep3B cells; assay type: functional, cell-based
SK-HEP1 = assay: Cytotoxicity against human SK-HEP1 cells; assay type: functional, cell-based
MKN-74 = assay: Cytotoxicity against human MKN-74 cells; assay type: functional, cell-based
AGS = assay: Cytotoxicity against human AGS cells; assay type: functional, cell-based
HepG2 [6] = assay: Anticancer activity against human HepG2 cells; assay type: functional, cell-based

Sequence of Epidermal growth factor receptor (P00533 whole entry): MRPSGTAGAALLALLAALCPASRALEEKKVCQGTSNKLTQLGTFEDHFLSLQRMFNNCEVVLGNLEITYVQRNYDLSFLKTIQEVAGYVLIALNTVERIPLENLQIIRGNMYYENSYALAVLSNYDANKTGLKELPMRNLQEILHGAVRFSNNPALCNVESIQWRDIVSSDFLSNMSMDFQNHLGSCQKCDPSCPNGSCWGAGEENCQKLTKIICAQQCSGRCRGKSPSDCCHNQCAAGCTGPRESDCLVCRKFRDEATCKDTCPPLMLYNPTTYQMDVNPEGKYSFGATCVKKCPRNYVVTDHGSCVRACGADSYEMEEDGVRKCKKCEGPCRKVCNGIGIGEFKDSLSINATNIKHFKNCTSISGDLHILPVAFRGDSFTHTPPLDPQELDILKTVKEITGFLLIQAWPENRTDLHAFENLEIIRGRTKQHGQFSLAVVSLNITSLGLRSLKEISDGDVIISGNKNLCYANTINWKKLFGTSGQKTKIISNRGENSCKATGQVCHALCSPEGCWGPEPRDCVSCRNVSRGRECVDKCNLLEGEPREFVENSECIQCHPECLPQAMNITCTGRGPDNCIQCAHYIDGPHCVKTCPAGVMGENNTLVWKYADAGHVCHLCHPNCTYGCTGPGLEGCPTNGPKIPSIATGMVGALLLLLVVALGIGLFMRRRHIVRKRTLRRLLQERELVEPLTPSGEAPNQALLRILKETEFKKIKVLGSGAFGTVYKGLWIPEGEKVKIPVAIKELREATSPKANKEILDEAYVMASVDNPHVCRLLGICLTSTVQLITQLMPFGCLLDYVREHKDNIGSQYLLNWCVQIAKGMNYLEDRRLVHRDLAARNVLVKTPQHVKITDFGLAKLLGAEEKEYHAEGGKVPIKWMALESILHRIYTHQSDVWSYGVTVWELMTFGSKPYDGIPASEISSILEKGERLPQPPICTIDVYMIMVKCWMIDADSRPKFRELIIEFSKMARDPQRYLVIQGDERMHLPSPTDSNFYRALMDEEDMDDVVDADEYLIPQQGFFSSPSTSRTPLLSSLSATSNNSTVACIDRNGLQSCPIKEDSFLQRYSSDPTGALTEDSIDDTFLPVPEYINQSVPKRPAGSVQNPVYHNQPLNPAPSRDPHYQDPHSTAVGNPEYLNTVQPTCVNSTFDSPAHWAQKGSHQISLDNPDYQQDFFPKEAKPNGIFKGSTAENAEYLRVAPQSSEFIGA

Structure (SMILES): N#Cc1ccc(S(=O)(=O)Nc2ccc(-c3csc(N/N=C/c4ccc(N(CCCl)CCCl)cc4)n3)cc2)cc1
IC50 (HCT-116): 3.02 µg/mL (≈ 5.04 µM)
IC50 (MV4-11): 2170 nM

Structure (SMILES): CC(=O)Nc1ccc(NC(=O)/C(C#N)=C2\SC=C(C)N2c2ccccc2)cc1
IC50 (MCF7 [1]): 6.9 µg/mL (≈ 17.7 µM)

Structure (SMILES): CC1=C(C(=O)Nc2nc(-c3ccccc3)cs2)C(c2ccc([N+](=O)[O-])cc2)C(C(=O)Nc2nc(-c3ccccc3)cs2)=C(C)N1
IC50 (HeLa): 3 nM

Structure (SMILES): Cc1nc(C(Cl)(Cl)S(=O)(=O)c2ccc(F)cc2)c([N+](=O)[O-])s1
CC50 (HepG2 [4]): < 2500 nM

Structure (SMILES): C=C(NC(=O)C(=C)NC(=O)c1csc(C2=N[C@@H]3c4csc(n4)[C@H]4NC(=O)c5csc(n5)C([C@](C)(O)[C@@H](C)O)NC(=O)[C@H]5CSC(=N5)/C(=C/C)NC(=O)C([C@@H](C)O)NC(=O)c5csc(n5)[C@]3(CC2)NC(=O)[C@H](C)NC(=O)C(=C)NC(=O)C(=C)NC(=O)[C@H](C(C)C)N[C@H]2C=Cc3c([C@H](C)O)cc(nc3[C@H]2O)C(=O)O[C@@H]4C)n1)C(N)=O (stereo partly specified)
IC50 [5]: 750 nM
IC50 (SNU-638): 910 nM
IC50 (Hep 3B2): 1900 nM
IC50 (SK-HEP1): 1600 nM
IC50 (HepG2 [4]): 1300 nM
IC50 (MKN-74): 6210 nM
IC50 (AGS): 710 nM

Structure (SMILES): CC(=O)Nc1ccc(NC(=O)/C(C#N)=C2\SC=C(c3ccccc3)N2c2ccccc2)cc1
IC50 (MCF7 [1]): 9.3 µg/mL (≈ 20.6 µM)

Structure (SMILES): Cc1nc(C(Cl)(Cl)S(=O)(=O)c2ccc(Cl)cc2)c([N+](=O)[O-])s1
CC50 (HepG2 [4]): < 2500 nM

Structure (SMILES): COc1ccc(S(=O)(=O)Nc2ccc(-c3csc(N/N=C/c4ccc(N(CCCl)CCCl)cc4)n3)cc2)cc1
IC50 (HCT-116): 3.02 µg/mL (≈ 5 µM)
IC50 (MV4-11): 2170 nM

Structure (SMILES): CC1=C(C(=O)Nc2nc(-c3ccccc3)cs2)C(c2ccc(Cl)cc2)C(C(=O)Nc2nc(-c3ccccc3)cs2)=C(C)N1
IC50 (HeLa): 2 nM

Structure (SMILES): COc1cccc2c1C(=O)c1c(O)c3c(c(O)c1C2=O)C[C@@](O)(C(=O)CO)C[C@@H]3O[C@H]1C[C@H](N)[C@H](O)[C@H](C)O1.Cl [DOXORUBICIN HYDROCHLORIDE]
GI50 (HeLa): < 80 µg/mL

Structure (SMILES): Cc1nc(C(Cl)(Cl)S(=O)(=O)c2ccc(Br)cc2)c([N+](=O)[O-])s1
CC50 (HepG2 [4]): < 2500 nM

Structure (SMILES): Cc1nc(C(Cl)(Cl)S(=O)(=O)c2ccccc2)c([N+](=O)[O-])s1
CC50 (HepG2 [4]): < 2500 nM

Structure (SMILES): O=S(=O)(Nc1ccc(-c2csc(N/N=C/c3ccc(N(CCCl)CCCl)cc3)n2)cc1)c1ccc(F)cc1
IC50 (HCT-116): 3.02 µg/mL (≈ 5.1 µM)
IC50 (MV4-11): 2170 nM

More lines, main results first:

GI50 (MCF7 [2]): > 80 µg/mL
Structure (SMILES): O=[N+]([O-])c1ccc(-c2nn(-c3nc(-c4ccc(Br)cc4)cs3)cc2/C=N/c2nc[nH]n2)cc1
GI50 (HeLa): 1.2 µg/mL (≈ 2.3 µM)

IC50 [3]: 2000 nM
Structure (SMILES): CC(C)=NNc1nc(-c2ccc(Cl)cc2)cs1

IC50 [3]: 8 nM
Structure (SMILES): COc1cc(C(=O)c2csc(-c3ccc4[nH]ccc4c3)n2)cc(OC)c1OC

IC50 (MCF7 [2]): 5280 nM
Structure (SMILES): C/C(=N/N=c1/[nH]c(-c2ccccc2)c(/N=N/c2ccccc2)s1)[C@H]1CC[C@H]2[C@@H]3CCC4=CC(=O)CC[C@]4(C)[C@H]3CC[C@]12C

IC50 (MCF7 [2]): 3530 nM
Structure (SMILES): CC/C(=C(\c1ccccc1)c1ccc(OCCN(C)C)cc1)c1ccccc1 [TAMOXIFEN]

IC50 (MCF7 [2]): 8870 nM
Structure (SMILES): C/C(=N/N=c1/[nH]c(C)c(/N=N/c2ccccc2)s1)[C@H]1CC[C@H]2[C@@H]3CCC4=CC(=O)CC[C@]4(C)[C@H]3CC[C@]12C

IC50 [3]: 80 nM
Structure (SMILES): O=C(NC1=NC2C(=O)NN=C(c3ccc(Br)cc3)C2S1)Nc1ccc(Cl)cc1 (stereo unspecified)

IC50 [3]: 20 nM
Structure (SMILES): COc1cc(C(=NC#N)c2csc(-c3ccccc3)n2)cc(OC)c1OC

IC50 (HepG2 [6]): 1.98 µg/mL
Structure (SMILES): Cc1c(C(=O)Nc2ccccc2)s/c(=N\NC(=O)c2cnc(-c3ccccc3)s2)n1-c1ccccc1

IC50 (HepG2 [6]): 1.61 µg/mL
Structure (SMILES): C/C(=N\NC(=O)c1sc(-c2ccccc2)nc1C)C1=NN(C)C(/N=N/C(=O)c2sc(-c3ccccc3)nc2-c2ccc(C)cc2)C1 (stereo unspecified)

IC50 (HepG2 [6]): 11600 nM
Structure (SMILES): Cc1ccc(-c2nc(C(=O)Nc3cccc(Cl)c3)cs2)cc1

IC50 [3]: 10100 nM
Structure (SMILES): CCOC(=O)c1csc(NC(=S)Nc2ccc(Cl)cc2)n1

IC50 [3]: 5480 nM
Structure (SMILES): FC(F)(F)c1ccc(/C=N/Nc2nc(-c3ccc(Cl)cc3Cl)cs2)cc1
